These results are taken from article PMC4686831, “Identification of an allosteric binding site for RORγt inhibition” (Nature Communications, 2015).

The target of test [1] is T1, RORγt-LBD (Homo sapiens, UniProt P51449).
T1 construct: leader […]; made in house; host or cells: BL21(DE3) E. coli
T1 sequence (P51449 259-518): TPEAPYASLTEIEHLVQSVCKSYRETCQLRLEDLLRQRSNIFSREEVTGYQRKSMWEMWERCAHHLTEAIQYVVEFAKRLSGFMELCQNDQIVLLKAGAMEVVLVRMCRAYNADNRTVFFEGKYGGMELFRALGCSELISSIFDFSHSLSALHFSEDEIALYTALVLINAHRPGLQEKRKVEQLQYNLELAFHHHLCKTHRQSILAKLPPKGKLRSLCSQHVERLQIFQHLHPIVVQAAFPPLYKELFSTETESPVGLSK
Kind of test: RORγt-LBD SRC-1 cofactor FRET assay. In kind it is biochemical.
Procedure: The potency of small-molecule RORγt ligands was then assessed by monitoring their effect on the association of a LXXLL-motif-containing SRC-1 peptide. Compound (10 mM dimethylsulphoxide (DMSO) stock) was serially diluted in threefold steps using an Agilent Bravo liquid handler. […] Compounds were allowed to incubate with receptor for 15 min and then 5 μl of peptide in detection buffer or detection buffer alone were added. Detection buffer (5 × ) consists of 50 mM Tris-HCL pH 7.0, 50 mM potassium chloride, 1 mM EDTA, 0.1% delipidated bovine serum albumin, 1 mM DTT and 20 nM streptavidin-APC (PerkinElmer). […] The plate was then incubated overnight at 4 °C. The following morning the plate was warmed to room temperature and read using an Envision plate reader (PerkinElmer). […] The per cent activity of each dilution was determined as the ratio of background corrected signal to the background corrected signal of wells receiving only DMSO. IC50 values were determined by fitting per cent activity data to a four-parameter logistic dose–response equation in GraphPad Prism (GraphPad Software).

In test [2] the target is T1, RORγt-LBD. Kind of test: RORγt-LBD AlexaFluor-647-labelled MRL-871 competitive binding assay. The note with it: 100 nM probe; mean±s.d.; read-out: MRL-871 AlexaFluor Probe Competition IC50. The protocol: The plate was then incubated for 15 min at room temperature. […] TR-FRET intensity in the presence of RORγt was corrected for background and the KD determined using the One-site specific binding equation in Graph Pad Prism. […] IC50 values were determined by fitting per cent activity data to a four-parameter logistic dose–response equation in GraphPad Prism.

The next test concerns the target T2, RORγt-GAL4 (Homo sapiens, UniProt P51449).
T2 construct: expressed in transfected cells; host or cells: HEK293T
The experiment in a line: Chimeric RORγt-GAL4 luciferase reporter assay in HEK293T cells. In kind it is cell-based. To be noted: mean±s.d. In general terms: A reporter such as luciferase makes a cellular process visible.

Test [3] has as its system IL-17 production in human PBMCs. The experiment in a line: PBMC Th17 polarization and IL-17 production assay. In kind it is cell-based. To be noted: 96 h, 4 days, mean±s.d., read-out: hPBMC IL17A IC50. The protocol:
Test compounds were prepared as 10 mM stocks in DMSO and serially diluted 1:3 to provide an eight-concentration titration. […] Stimulatory cytokines were added to final concentrations of 25 ng ml^−1 IL-1B, 10 ng ml^−1 IL-23, 0.5 ng ml^−1 IL-2 and 10 ng ml^−1 IL-6 (all cytokines from R&D Systems). In addition, T-Activator CD3/28 Dynabeads (Invitrogen) were added to a concentration of 100,000 beads per ml. The stimulated cells were immediately dispensed into the assay plate containing serially diluted compound at a volume of 200 μl cells per well. Cell plates were then incubated at 37 °C and 5% CO2 for 4 days. Culture media (100 μl) was collected from each well and IL-17 expression was measured by enzyme-linked immunosorbent assay (R&D Systems) according to the manufacturer's instructions. Cell viability was assessed by the addition of 100 μl of CellTiter-Glo (Promega) to each well of the cell assay plate followed by luminescence detection on an Envision plate reader (PerkinElmer).

Each structure is given as a SMILES string.

T2 sequence (P51449 97-518): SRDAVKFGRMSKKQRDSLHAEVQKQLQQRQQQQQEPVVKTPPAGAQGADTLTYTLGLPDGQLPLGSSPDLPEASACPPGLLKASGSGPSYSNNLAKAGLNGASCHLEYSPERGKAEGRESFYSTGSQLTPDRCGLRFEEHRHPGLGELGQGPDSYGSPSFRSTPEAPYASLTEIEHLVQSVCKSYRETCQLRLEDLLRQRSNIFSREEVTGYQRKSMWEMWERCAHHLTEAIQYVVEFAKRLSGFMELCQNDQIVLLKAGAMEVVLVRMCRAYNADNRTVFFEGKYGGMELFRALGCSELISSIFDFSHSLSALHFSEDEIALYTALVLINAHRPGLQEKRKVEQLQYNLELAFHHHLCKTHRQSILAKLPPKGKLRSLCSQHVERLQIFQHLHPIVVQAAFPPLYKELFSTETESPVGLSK
Procedure for RORγt-GAL4: This vector, along with the GAL4 UAS-luciferase reporter vector pGL4.31 (Promega), was used to transfect HEK293T cells. […] Following transfection, cells were transferred to one T75 flask and incubated overnight at 37 °C and 5% CO2. […] Cells were collected and resuspended at 0.8 × 10^6 cells per ml in DMEM high-glucose media with 10% FBS. To each well of the plate was added 25 μl of cell suspension and the cells incubated overnight at 37 °C and 5% CO2. After 20–22 h, the plates were brought to room temperature and 25 μl of Steady-Glo luciferase reagent (Promega) was added to each well. The luminescent signal was measured on an Envision plate reader.

Broadly, the IC50 is the concentration that inhibits the measured activity by half. For the compound `CC1(C(=O)O)CC=C(c2nn(C(=O)c3c(Cl)cccc3C(F)(F)F)c3cccc(F)c23)CC1` (centres unmarked) [MRL-673], the “weaker potency relative to MRL-367” value on RORγt-LBD [1] (in both the biochemical and cellular assays) is on record as 10 fold. The IC50 on RORγt-LBD [1] (mean±s.d., read-out: SRC1 Cofactor FRET IC50) was 21.8 ± 6.7 nM; on RORγt-LBD [2] it was 26.4 ± 13 nM; against RORγt-GAL4 it was 279 ± 137 nM; in test [3] it was 142 ± 64 nM.
